Read-outs that look alike come from different tables or passages of the source.
Legend:
[1] = biological target: hERG channel (Homo sapiens, UniProt Q12809); experiment: hERG competition binding
Text: Compounds that are antagonists or inverse agonists at the human H1 receptor are often found to bind to the hERG channel, giving rise to arrhythmia possibly leading to sudden cardiac arrest. This led to the withdrawal of several medicines from the clinics. This parameter has thus been evaluated for the compounds of the present application.
The discriminative recognition of hERG channel by the eutomer versus the distomer is shown in the table below where the reported values are the inhibition constant determined by competition binding: […]

[2] = biological target: human H1 receptor (Homo sapiens, UniProt P35367); experiment: hH1 GTPgS: inhibition of agonist-induced stimulation of radioactive GTP-gamma-S binding at recombinant receptors; format: biochemical
human H1 receptor, sequence (P35367 whole entry): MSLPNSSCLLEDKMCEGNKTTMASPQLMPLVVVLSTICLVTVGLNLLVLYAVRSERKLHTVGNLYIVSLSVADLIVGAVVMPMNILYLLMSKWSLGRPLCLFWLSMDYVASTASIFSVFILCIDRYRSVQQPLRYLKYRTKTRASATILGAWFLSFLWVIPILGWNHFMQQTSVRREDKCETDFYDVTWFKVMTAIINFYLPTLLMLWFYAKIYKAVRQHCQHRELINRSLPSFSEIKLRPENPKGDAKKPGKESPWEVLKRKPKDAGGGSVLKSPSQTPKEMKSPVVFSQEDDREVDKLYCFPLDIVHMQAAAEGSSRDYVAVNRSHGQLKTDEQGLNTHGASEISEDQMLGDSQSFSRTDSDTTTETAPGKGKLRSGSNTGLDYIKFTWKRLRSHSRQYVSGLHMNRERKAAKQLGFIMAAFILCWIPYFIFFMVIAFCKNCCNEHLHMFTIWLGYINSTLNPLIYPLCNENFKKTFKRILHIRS
Procedure: (§1) Activity at the human H1 receptor is determined by the inhibition of agonist-induced stimulation of radioactive GTP-gamma-S binding at recombinant receptors. […] Affinity for the human H4 receptor is determined by binding competition.

[3] = biological target: human H4 receptor (Homo sapiens, UniProt Q9H3N8); experiment: hH4 binding competition
human H4 receptor, sequence (Q9H3N8 whole entry): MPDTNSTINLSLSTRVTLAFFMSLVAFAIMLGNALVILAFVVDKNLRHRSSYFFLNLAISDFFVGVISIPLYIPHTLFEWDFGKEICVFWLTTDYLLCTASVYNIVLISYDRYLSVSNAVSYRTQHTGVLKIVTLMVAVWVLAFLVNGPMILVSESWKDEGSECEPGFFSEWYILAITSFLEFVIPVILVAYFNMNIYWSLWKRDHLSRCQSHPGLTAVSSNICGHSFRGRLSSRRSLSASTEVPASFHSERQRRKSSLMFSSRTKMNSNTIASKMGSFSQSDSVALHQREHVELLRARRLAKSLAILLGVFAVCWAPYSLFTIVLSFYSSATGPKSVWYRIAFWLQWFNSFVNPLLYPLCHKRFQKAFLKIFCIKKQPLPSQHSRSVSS
Procedure: as §1

[4] = Bioavailability / lung exposure after per os administration to mice; format: in vivo
[5] = allergic conjunctivitis; Nakano Y et al. Eur J Pharmacol 2009; cited from earlier work
[6] = Brain exposure: exposure over 8 hours in brain and plasma after per os administration to mice; format: in vivo; conditions: for Kp: mouse, brain/plasma, oral, examples of the present invention, read-out: ratio of the exposure in brain over the one in plasma
Procedure: Compounds that are acting as […] or inverse agonists on the histamine H1 receptor should not enter the brain. This would lead to unwanted side effects such as sedation and weight gain. The efficiency for entering into the brain may be assessed by administrating the compound per os to mice and measuring the exposure over 8 hours in the brain and in the plasma. The result may be expressed by the ratio of the exposure in brain over the one in plasma.

[7] = comparative compounds of WO 2012/041860, eutomer and distomer
[8] = eutomers of the invention and their distomers

hERG channel, sequence (Q12809 whole entry): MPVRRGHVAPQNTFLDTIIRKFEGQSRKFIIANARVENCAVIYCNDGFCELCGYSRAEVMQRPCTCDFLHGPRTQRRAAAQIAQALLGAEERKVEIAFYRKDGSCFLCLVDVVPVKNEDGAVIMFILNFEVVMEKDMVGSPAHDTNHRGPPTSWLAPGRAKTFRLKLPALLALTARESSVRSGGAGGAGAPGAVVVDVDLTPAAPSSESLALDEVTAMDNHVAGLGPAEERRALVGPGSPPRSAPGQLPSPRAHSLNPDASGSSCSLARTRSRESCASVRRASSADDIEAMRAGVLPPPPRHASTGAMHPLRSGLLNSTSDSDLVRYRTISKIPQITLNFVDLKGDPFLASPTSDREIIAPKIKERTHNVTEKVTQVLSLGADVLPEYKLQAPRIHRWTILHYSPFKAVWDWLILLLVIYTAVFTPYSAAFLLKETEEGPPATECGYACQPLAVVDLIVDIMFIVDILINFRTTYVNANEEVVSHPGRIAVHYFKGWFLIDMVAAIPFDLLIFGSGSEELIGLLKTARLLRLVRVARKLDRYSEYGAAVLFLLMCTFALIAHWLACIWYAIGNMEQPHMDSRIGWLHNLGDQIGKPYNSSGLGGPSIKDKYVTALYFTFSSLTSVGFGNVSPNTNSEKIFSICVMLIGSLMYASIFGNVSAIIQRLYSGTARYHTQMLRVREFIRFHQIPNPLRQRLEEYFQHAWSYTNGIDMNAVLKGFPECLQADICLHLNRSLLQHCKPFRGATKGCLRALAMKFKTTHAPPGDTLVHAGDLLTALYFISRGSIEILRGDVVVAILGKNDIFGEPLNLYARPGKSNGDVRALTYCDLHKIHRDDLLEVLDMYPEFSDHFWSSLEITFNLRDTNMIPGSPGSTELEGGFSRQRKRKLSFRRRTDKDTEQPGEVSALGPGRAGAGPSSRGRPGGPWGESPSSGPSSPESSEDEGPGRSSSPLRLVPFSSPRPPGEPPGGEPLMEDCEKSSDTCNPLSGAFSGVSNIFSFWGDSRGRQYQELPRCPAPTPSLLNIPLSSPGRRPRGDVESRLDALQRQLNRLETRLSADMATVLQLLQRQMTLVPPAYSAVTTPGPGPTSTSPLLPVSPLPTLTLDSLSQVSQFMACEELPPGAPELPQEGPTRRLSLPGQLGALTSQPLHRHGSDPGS

| Compound | Ki [1, 7] | Kb [2] | Ki [3] | Ki [1, 8] | also measured |
| --- | --- | --- | --- | --- | --- |
| Cc1ccc(C(OC2CCN(C)CC2)c2nc3ccccc3[nH]2)c(F)c1 (stereo not shown) [drawing 24 Eutomer, reference compound] | 503 nM | – | – | – | – |
| CN1CCC(OC(c2nc3ccccc3[nH]2)c2cccc(F)c2O)CC1 (single isomer, unassigned) [Example 1 Distomer A] | – | 225 nM | 788 nM | 4210 nM | – |
| CN1CCC(OC(c2nc3ccccc3[nH]2)c2ccc(Cl)c(F)c2O)CC1 (stereo not shown) [drawing 28 Eutomer, reference compound] | 6680 nM | – | – | – | – |
| CN1CCC(OC(c2nc3ccccc3[nH]2)c2ccc(F)c(F)c2O)CC1 (stereo not shown) [drawing 26 Distomer, reference compound] | 32000 nM | – | – | – | – |
| CN1CCC(OC(c2nc3ccccc3[nH]2)c2ccc(F)c(F)c2O)CC1 (stereo not shown) [drawing 26 Eutomer, reference compound] | 18000 nM | – | – | – | – |
| CN1CCC(OC(c2nc3cc(F)ccc3[nH]2)c2ccccc2O)CC1 (single isomer, unassigned) [Example 5] | – | 1.65 nM | 0.915 nM | 3210 nM | lung AUC ([4]; 1 mg/kg): 1264 ng·h/g |
| C[C@@H]1CN([C@H]2CC[C@](C#N)(c3ccc(F)cc3)CC2)CC[C@]1(C(=O)O)c1ccccc1 [levocabastine] | – | – | – | – | eye scratching behavior [5]: inhibited eye scratching behavior |
| Cc1ccc(C(OC2CCN(C)CC2)c2nc3ccccc3[nH]2)c(F)c1 (stereo not shown) [drawing 24 Distomer, reference compound] | 363 nM | – | – | – | – |
| CN1CCC(OC(c2nc3cccc(Cl)c3[nH]2)c2ccccc2O)CC1 (single isomer, unassigned) [Example 6 Distomer A] | – | 598 nM | 474 nM | 1490 nM | – |
| CN1CCC(OC(c2nc3ccc(Cl)c(F)c3[nH]2)c2ccccc2O)CC1 (single isomer, unassigned) [Example 3 Distomer A] | – | 156 nM | 42 nM | 783 nM | – |
| Cc1c(Cl)ccc2nc(C(OC3CCN(C)CC3)c3ccccc3O)[nH]c12 (single isomer, unassigned) [Example 7 Distomer A] | – | 132 nM | 73.1 nM | 586 nM | – |
| CN1CCC(O[C@H](c2nc3ccccc3[nH]2)c2cccc(F)c2O)CC1 [Example 1, (S)-2-[(1H-benzimidazol-2-yl)(1-methylpiperidin-4-yloxy)methyl]-6-fluorophenol] | – | 2.18 nM | 5.02 nM | 11400 nM | – |
| Cc1c(Cl)ccc2nc(C(OC3CCN(C)CC3)c3ccccc3O)[nH]c12 (single isomer, unassigned) [Example 7] | – | 1.87 nM | 0.727 nM | 3010 nM | lung AUC ([4]; 1 mg/kg): 1169 ng·h/g |
| CN1CCC(OC(c2nc3ccccc3[nH]2)c2cccc(F)c2O)CC1 (single isomer, unassigned) [Example 1] | – | – | – | – | Kp ([6]; 10 mg/kg): 0.2; lung AUC ([4]; 10 mg/kg): 20486 ng·h/g |
| Cc1cccc2nc(C(OC3CCN(C)CC3)c3ccccc3O)[nH]c12 (single isomer, unassigned) [Example 4 Distomer A] | – | 133 nM | 491 nM | 2780 nM | – |
| (S)-2-[(1H-benzimidazol-2-yl)(1-methylpiperidin-4-yloxy)methyl]-6-fluorophenol [Example 1] | – | – | – | – | ratio of the exposure in brain over the one in plasma ([6]; 10 mg/kg, comparative compounds, example numbers of WO2012/041860): 13 |
| Cc1ccc(C(OC2CCN(C)CC2)c2nc3ccc(F)cc3[nH]2)c(O)c1F (single isomer, unassigned) [drawing 27 Distomer, reference compound] | 799 nM | – | – | – | – |
| CN1CCC(OC(c2nc3cccc(Cl)c3[nH]2)c2ccccc2O)CC1 (single isomer, unassigned) [Example 6] | – | 1.25 nM | 3.42 nM | 12500 nM | Kp ([6]; 1 mg/kg): 0; lung AUC ([4]; 1 mg/kg): 6316 ng·h/g |
| CN1CCC(OC(c2nc3cc(F)ccc3[nH]2)c2ccccc2O)CC1 (single isomer, unassigned) [Example 5 Distomer A] | – | 97.5 nM | 249 nM | 646 nM | – |
| Cc1ccc(C(OC2CCN(C)CC2)c2nc3ccccc3[nH]2)c(O)c1F (stereo not shown) [drawing 25 Eutomer, reference compound] | 3100 nM | – | – | – | – |
| Cc1ccc(C(OC2CCN(C)CC2)c2nc3ccc(F)cc3[nH]2)c(O)c1F (single isomer, unassigned) [drawing 27 Eutomer, reference compound] | 220 nM | – | – | – | – |
| Cc1cccc2nc(C(OC3CCN(C)CC3)c3ccccc3O)[nH]c12 (single isomer, unassigned) [Example 4] | – | 0.165 nM | 2.87 nM | 21300 nM | Kp ([6]; 1 mg/kg): 0.3; lung AUC ([4]; 1 mg/kg): 1144 ng·h/g |
| CN1CCC(OC(c2nc3ccccc3[nH]2)c2ccc(Cl)c(F)c2O)CC1 (stereo not shown) [drawing 28 Distomer, reference compound] | 8430 nM | – | – | – | – |
| CN1CCC(OC(c2nc3ccc(Cl)c(F)c3[nH]2)c2ccccc2O)CC1 (single isomer, unassigned) [Example 3] | – | 1.43 nM | 0.61 nM | 2580 nM | Kp ([6]; 1 mg/kg): 0; lung AUC ([4]; 1 mg/kg): 10037 ng·h/g |
| Cc1ccc(C(OC2CCN(C)CC2)c2nc3ccccc3[nH]2)c(O)c1F (stereo not shown) [drawing 25 Distomer, reference compound] | 5700 nM | – | – | – | – |

From patent US12134608B2, “Benzimidazole derivatives as dual histamine H1 and histamine H4 receptor ligands” (BIOPROJET, priority 2017, dated 2024)
